Four compounds from patent US20160040251A1, “BIOMARKERS FOR THE IDENTIFICATION OF CHEMOSENSITIVITY” (PHARMACYCLICS, LLC, priority 2013, published 2016) can be followed below.

In assay [1] the test system is breast cancer cell lines (BCLs). Nature of the assay: MTS cell viability assay in breast cancer cell lines. As to conditions: for drug-response profiles of BCLs (high- or low-dose sensitive) versus abexinostat profiles: other HDACi compounds; for drug-response profiles of BCLs (high- or low-dose sensitive) versus abexinostat profiles / IC50: 72 h; for IC50: Homo sapiens, 72 h treatment, MTS. The format is cell-based, human. On the procedure: A large series of cell lines (16 BCLs) were exposed to increasing concentrations (150 nM-2.5 μM) of the abexinostat, for 72 hours. These series represent all the molecular diversity observed in breast cancers.
Cell lines. A total of 16 breast cancer cell lines (BCLs) were used for the study. HCC1500, HCC1937, HCC1954, Hs 578T, MCF7, MDA-MB-134, MDA-MB-231, MDA-MB-361, MDA-MB-436, […] were obtained from American type culture collection (http://www.atcc.org/). SUM149 and SUM159 were obtained from Dr S.
Ethier's (Karmanos Cancer Center, Detroit, Mich., USA). S68 was obtained from Dr V. Castros (University de Rennes, France) and Br-Ca-MZ-01 from Dr V. Möbus (University of Ulm, Germany). All BCLs tested were derived from carcinomas. BCLs were grown using the recommended culture conditions (Neve et al, Cancer Cell 2006).
Drugs. BCLs were continuously treated for 72h in adherent conditions with Histone Deacetylase Inhibitors (HDACi): abexinostat, SAHA and valproic acid. For experiments abexinostat was prepared in a 23,1 mM stock solution, SAHA in a 0.5M stock solution, in Dimethyl Sulfoxide (DMSO) and stored at −20° C. Valproic acid was prepared in a 1M stock solution in Phosphate Buffered Saline (PBS) and stored at 4° C. For experiments, cells were treated with respective IC50s. DMSO or PBS were used as vehicle control (C<0.1%).
Cell viability. Inhibitory Concentrations 50 (IC50s) were evaluated using 3-(4,5-dimethylthiazol-2-yl)-5-(3-carboxymethoxyphenyl)-2-(4-sulfophenyl)-2H-tetrazolium (MTS) assay. BCLs were plated in adherent condition in 96-well plates at 5,000 cells per well; except for SUM159 plated at 1,000 cells per well. After 24 h, treatment with serial dilutions of HDACi was started. The effect of treatment on cell viability was estimated after 72 h by addition of 100 μL MTS solution (5 mg/mL in PBS) in each well. Cells were then incubated for 1 h at 37° C. Absorbance was measured at 540 nm in a fluorescence plate reader.
A general note: Tetrazolium assays rely on reduction of a dye to a coloured formazan, in cell work by metabolically active cells.

The subject of assay [2] is patient-derived xenografts CRCM226X, CRCM392X, CRCM389X. Nature of the assay: Tumor growth of patient-derived xenografts under treatment. It counts as in vivo, NOD/SCID mice. As to conditions: abexinostat i.p. 12.5 mg/Kg twice a day 5 of 7 days, docetaxel 10 mg/kg weekly, three weeks. The source says:
To confirm the impact of abexinostat treatment on the CSC population from breast cancers with low XIST expression, three different patient-derived xenografts (PDXs) with distinct Xist expression level (CRCM226X, Xist^low; CRCM392X, Xist^med; CRCM389X, Xist^high) were utilized.
(§1) Animal models Cells from these PDXs were transplanted orthotopically into fat pads of NOD/SCID mice without cultivation in vitro. Single cancer cells (1,000,000 cells CRCM226X and CRCM389X, 125,000 cells CRCM392X) are injected into fat pads of NOD/SCID mice and tumor growth are monitored. When the tumor size was approximately 150 mm^3, treatment is started with abexinostat (i.p, 12.5 mg/Kg, twice a day, 5 out of 7 days for three weeks) or docetaxel (10 mg/kg weekly for three weeks) or placebo.
(§2) Six mice were injected for each PDX and for each group. After 1, 2 and 3 weeks of treatment, two mice from each group were sacrificed according to ethic statements. Tumors were dissociated and cells were analyzed for the ALDEFLUOR phenotype and tumorsphere formation capacity. Cells from 3-week treated mice were reimplanted into secondary NOD/SCID mice with injection of 1,000 cells for each treated tumor.

Assay [3] relates to ALDEFLUOR-positive CSC population of PDXs CRCM226X, CRCM392X, CRCM389X. Nature of the assay: ALDEFLUOR assay on residual PDX tumors. It counts as in vivo, NOD/SCID mice. As to conditions: after three weeks of treatment. On the procedure: as §1, §2
ALDEFLUOR assay The ALDEFLUOR kit (Stem Cell Technologies) was used to isolate the population with high aldehyde dehydrogenase (ALDH) enzymatic activity using an LSR2 cytometer as previously described (Ginestier et al, Cell Stem Cell, 2007). For BCLs cultivated in adherent condition, ALDEFLUOR-positive populations were evaluated after 72-hour treatment with HDACi (IC50s) or vehicle. Primary human xenografts CRCM226X, CRCM389X and CRCM392X were harvested on the 3rd week of treatment with abexinostat, docetaxel or placebo, dissociated and stained for ALDEFLUOR analysis. To eliminate cells of mouse origin from the xenotransplanted tumors, staining with an anti-H2K^d biotin antibody (1/200; BD Biosciences) followed by staining with a secondary antibody labeled with streptavidin e450 (1/200; eBioscience) was used.

For assay [4], the system named is patient-derived xenografts CRCM226X, CRCM392X, CRCM389X. Nature of the assay: Reimplantation of cells from treated PDXs into secondary mice (tumorigenicity). It counts as in vivo, NOD/SCID mice. On the procedure: as §2
Tumor growth was compared with that of placebo-treated controls. An inhibition of the CRCM226X (Xist^low) PDX growth after abexinostat and docetaxel treatment was observed. […] After three weeks of treatment, the animals were sacrificed and the proportion of ALDEFLUOR-positive CSCs was measured in each residual tumor (FIG. 6B). All PDX models presented an increase in the ALDEFLUOR-positive population isolated from docetaxel-treated tumors compared to the untreated control. […] Tumorigenicity is directly related to the presence of CSCs and this assay gives an estimate of the proportion of residual tumorigenic CSCs. For each treatment condition (placebo, abexinostat, docetaxel), 1,000 cells isolated from treated-tumors were reimplanted.

[5] abbreviates: CRCM226X (Xist low), 1,000 cells from 3-week treated tumors reimplanted.
Where [6] appears, read: CRCM389X (Xist high), 1,000 cells from 3-week treated tumors reimplanted.
Setting [7] is: CRCM392X (Xist med), 1,000 cells from 3-week treated tumors reimplanted.

Bounds are passed on as bounds.

Turning to `O=C(CCCCCCC(=O)Nc1ccccc1)NO` [SAHA, vorinostat], the “drug-response profiles of BCLs (high- or low-dose sensitive) versus abexinostat profiles” value in assay [1] was “confirmed”.

With `CCCC(CCC)C(=O)O` [Valproic Acid, valproic acid], the “drug-response profiles of BCLs (high- or low-dose sensitive) versus abexinostat profiles” value in assay [1] is recorded as “confirmed”.

As usually defined, the IC50 is the point on the concentration scale where inhibition reaches its midpoint. High values mean weaker potency in that assay, low ones greater potency in that assay. For `CN(C)Cc1c(C(=O)NCCOc2ccc(C(=O)NO)cc2)oc2ccccc12` [abexinostat], the IC50 was 170 to 460 nM in assay [1] (nine BCLs sensitive to low-dose) and greater than 700 nM in assay [1] (seven BCLs sensitive to high-dose). The “PDX tumor growth versus placebo” value in assay [2] (CRCM226X (Xist low)) is reported as “inhibition”; in assay [2] (CRCM389X (Xist high)), “no or discrete effect”; in assay [2] (CRCM392X (Xist med)), “no or discrete effect”. Further, the entries for the “ALDEFLUOR-positive population versus untreated control” value in assay [3] (CRCM226X (Xist low)), in assay [3] (CRCM389X (Xist high)) and in assay [3] (CRCM392X (Xist med)) were “two-fold decrease”, “increase” and “two-fold decrease”, respectively. For the same compound, the entries for the “tumor regrowth after reimplantation versus placebo-treated” value in assay [4] (setting [5]), in assay [4] (setting [6]) and in assay [4] (setting [7]) were “incapacity to regenerate a tumor”, “higher regrowth kinetic” and “delay in tumor regrowth”, respectively.

Take `CC(=O)O[C@@]12CO[C@@H]1C[C@H](O)[C@@]1(C)C(=O)[C@H](O)C3=C(C)[C@@H](OC(=O)[C@H](O)[C@@H](NC(=O)OC(C)(C)C)c4ccccc4)C[C@@](O)([C@@H](OC(=O)c4ccccc4)[C@H]21)C3(C)C` [docetaxel]: the “drug-response profile compared to abexinostat profile” value in assay [1] (conventional chemotherapeutic agent, BCLs) is reported as “totally distinct”. The “PDX tumor growth versus placebo” value in assay [2] (CRCM226X (Xist low)) was “inhibition”; in assay [2] (CRCM389X (Xist high)), “no or discrete effect”; in assay [2] (CRCM392X (Xist med)), “no or discrete effect”. In addition, the “ALDEFLUOR-positive population versus untreated control” value in assay [3] (CRCM226X (Xist low)), in assay [3] (CRCM389X (Xist high)) and in assay [3] (CRCM392X (Xist med)) was “increase” throughout. Moreover, the “tumor regrowth after reimplantation versus placebo-treated” value in assay [4] (setting [5]), in assay [4] (setting [6]) and in assay [4] (setting [7]) was “tumor regrowth comparable to placebo-treated tumors” each time.
